Data: publication PMC6749524, “Identification of New Antifungal Agents Targeting Chitin Synthesis by a Chemical-Genetic Method” (Molecules, 2019)
Where two headings read alike, the source gives them in different places.

What was measured:
[1] = tested on: WT S. cerevisiae strain BY4741; assay: MIC in compound library screening assay, WT yeast; format: cell-based; conditions: WT BY4741, YPD, 30 °C, 24 hours, MIC90
Description: The compound library is a combination of synthetic compounds from Enamine (Kyiv, Ukraine) and Life Chemicals Inc. (Burlington, ON, Canada) and natural products from the Institute of Medicinal Biotechnology. We used WT, chs3∆, and fks1∆ yeast strains to screen new antifungal agents. The screening assays were performed in 96-well plates in a final volume of 200 μL. Fresh yeast cells (OD600 = 0.8) were diluted to 10^5 CFU/mL in YPD medium. We added 198 μL of diluted culture and 2 μL of compounds into each well, and the final concentration of compounds was 100 μg/mL with 1% DMSO. The yeast cells were incubated at 30 °C for 24 hours to assess the growth. For the compounds that inhibited the growth of all three yeast strains, they were serially diluted to determine the minimal inhibit concentration (MIC) with the same method. MIC endpoints were defined as the lowest concentration of drugs that cause a 90% decrease in growth compared to the drug-free control (MIC90).

[2] = tested on: chitin level in C. albicans; assay: CFW staining of chitin, fluorescence microscopy; format: cell-based, Candida albicans; conditions: IMB-D10 12.5 μg/mL or IMB-F4 25 μg/mL, 5 hours
Description: WT S. cerevisiae and C. albicans ATCC10231 were grown to 10^5 CFU/mL in YPD medium and then treated with IMB-D10 (12.5 or 25 μg/mL), IMB-F4 (12.5 or 25 μg/mL), or 0.25% DMSO for 3 and 5 hours at 30 ℃. Cells were collected by centrifugation at 1500 g for 5 min and resuspended in PBS. Some cells were examined using 100 × / 1.25 oil immersion objective (DM2500, Leica) and analyzed by Leica las. Some cells were stained with 100 μg/mL Calcofluor White M2R (CFW, Sigma-Aldrich, St. Louis, MO, USA for 3 min and washed three times with water. Then, the cells were examined under the UV light for fluorescent signals.

[3] = tested on: budding yeast S. cerevisiae; assay: Growth inhibition, broth microdilution MIC; format: cell-based
Description: (§1) The experiments were carried out using a broth microdilution protocol modified from the Clinical and Laboratory Standards Institute M-27A methods. WT S. cerevisiae and C. albicans were grown to mid-log phase in YPD medium. The cells were collected by centrifugation at 1500 g for 5 min and diluted with RPMI 1640 medium to the density of 1 × 10^4 CFU/mL. Then, the samples with various concentrations of compounds were dispensed at 0.2 mL/well in sterile 96-well microplates. The final concentrations of compounds ranged from 3.125 to 100 μg/mL with serial two-fold dilution. After incubation at 30 °C (S. cerevisiae) or 35 °C (C. albicans) for 24 hours, the minimal inhibitory concentration (MIC) was determined by measuring the optical density of the wells with cell cultures. The antifungal agent caspofungin was used as a positive control. All tests were performed in triplicate.

C. albicans ATCC10231 = assay: Growth inhibition, broth microdilution MIC; format: cell-based, Candida albicans
Description: as §1

Hela cells = assay: Cytotoxicity assay (MTT); format: cell-based, human; conditions: concentration as high as 100 μg/mL, 48 hours
Description: Human embryonic kidney 293 cells and Hela cells were seeded in triplicate in 96-well plates and grown to log-phase in DMEM medium with 10% FBS. Then, the medium was removed, and the cells were incubated with compounds at various concentrations ranging from 3.125 to 100 μg/mL in DMEM medium without FBS. After incubation for 48 hours, MTT reagent was added for further incubation for 4 hours. After we added 50 μL of DMSO, the absorbance was measured at 570 nm. The IC50 values were calculated based on a concentration-response curve.

budding yeast = assay: MIC of CFW in the presence of compounds, checkerboard assay; format: cell-based, S. cerevisiae
Description: Fresh cell cultures of WT S. cerevisiae and C. albicans ATCC10231 (OD600 = 0.8) were diluted to 10^4 CFU/mL in YPD medium. The in vitro synergistic and antagonistic effects of compounds were determined using checkerboard assay. MIC endpoints were defined as the lowest concentration of drugs, causing 80% decrease in viability compared to the drug-free control (MIC80). The calculation and interpretation of the fractional inhibitory concentration index (FICI) were carried out by referring to the document standards. FICI = (MIC of drug A in combination) / (MIC of drug A alone) + (MIC of drug B in combination) / (MIC of drug B alone). FIC ≤0.5 was considered as a synergistic effect, and >2 was considered as antagonism.

Compound	MIC ([1]; Saccharomyces cerevisiae, read-out: MIC, WT)	chitin level by CFW staining [2]	cell growth inhibition ([3]; S. cerevisiae, at 100 μg/mL)	MIC (C. albicans ATCC10231; Candida albicans, read-out: MIC)	growth inhibition (toxicity) (Hela cells)	resistance to CFW (budding yeast; yeast cells treated with 25 and 50 μg/mL IMB-F4)	MIC, WT [1]	MIC ([3]; budding yeast S. cerevisiae)	MIC (C. albicans ATCC10231)	increase of the MIC of CFW (budding yeast; budding yeast, presence of 12.5 μg/mL IMB-D10)
COc1cc(OC)cc(C(=O)N(CCn2ccnc2)c2nc3ccc(OC)cc3s2)c1 [IMB-F4, N-(2-(1H-imidazol-1-yl)ethyl)-3,5-dimethoxy-N-(6-methoxybenzo[d]thiazol-2-yl)benzamide]	> 100 µg/mL	decreased chitin level	did not inhibit cell growth	> 100 µg/mL	No growth inhibition	increased resistance to CFW				
N-(2-(diethylamino) ethyl)-N-(7-hydroxy-4-methoxybenzo[d]thiazol -2-yl)-2-oxo-2H-chromene-3-carboxamide [IMB-D10]		decreased chitin level					50 µg/mL	50 µg/mL	100 µg/mL	eight-fold increase
